Earlier results, collected in patent publication US20130280331A1, “Depot Compositions with multiple drug release rate controls and uses thereof” (Durect Corporation, priority 2001, published 2013).

- reported solubility in water: 7.17 grams in 100 ml of water
Structure (SMILES): CC(=O)OCC(COC(C)=O)OC(C)=O [triacetin]
